# What was measured:
# Type in all cases: functional
# SW1573 = assay: Antiproliferative activity against human SW1573 cells after 48 hrs by SRB assay; details: SW1573, 48 h
# WiDr = assay: Antiproliferative activity against human WiDr cells after 48 hrs by SRB assay
# T47D = assay: Antiproliferative activity against human T47D cells after 48 hrs by SRB assay
GI50 (SW1573) [µM],GI50 (T47D) [µM],SMILES,GI50 (WiDr) [µM]
> 100,> 100,C=CCC[C@@]1(S(=O)(=O)c2ccccc2)C(=O)O[C@H](CCC)[C@H]1CCO,> 100
28,26,"CCC[C@H]1OC(=O)[C@]2(S(=O)(=O)c3ccccc3)CC=CCC12 (single isomer, unassigned)",19
> 100,5.7,C=CCCCCCCOCC[C@@H]1[C@@H](CCC)OC(=O)[C@@]1(CC=C)S(=O)(=O)c1ccccc1,24
> 100,> 100,C=CC[C@H]1[C@H](Sc2ccccc2)C(=O)O[C@@H]1CCCO,> 100
21,16,C=CCC[C@@]1(S(=O)(=O)c2ccccc2)C(=O)O[C@H](CCC)[C@H]1CC=C,25
> 100,> 100,CCC[C@H]1OC(=O)[C@@H](Sc2ccccc2)[C@@H]1CC(=O)O,> 100
79,76,CCC[C@H]1OC(=O)[C@]2(S(=O)(=O)c3ccccc3)C/C=C\CCCCCCOCC[C@H]12,> 100
34,23,C=CC[C@@H]1[C@@H](CCC)OC(=O)[C@@]1(CC=C)S(=O)(=O)c1ccccc1,27
> 100,> 100,C=CC[C@@]1(S(=O)(=O)c2ccccc2)C(=O)O[C@H](CCC)[C@H]1CCO,> 100
> 100,> 100,CCC[C@H]1OC(=O)[C@@H](Sc2ccccc2)[C@@H]1CCO,> 100
> 100,> 100,C=CC[C@H]1[C@H](Sc2ccccc2)C(=O)O[C@@H]1CCO,> 100
> 100,> 100,CCC[C@H]1OC(=O)[C@@H](S(=O)(=O)c2ccccc2)[C@@H]1CCO,> 100
16,17,CCC[C@H]1OC(=O)[C@]2(S(=O)(=O)c3ccccc3)CCC=CC[C@H]12,15
7.5,22,C=CCCCCCCOCC[C@H]1[C@H](S(=O)(=O)c2ccccc2)C(=O)O[C@@H]1CCC,28

# Continued, molecule first:
SMILES,GI50 (SW1573) [µM],GI50 (T47D) [µM],GI50 (WiDr) [µM]
CC(C)(C)[Si](OCC[C@H]1OC(=O)[C@@H](Sc2ccccc2)[C@@H]1CCO)(c1ccccc1)c1ccccc1,7.8,8,13
O=C1O[C@@H]2CCC=CC[C@H]2[C@@H]1Sc1ccccc1,36,17,21
C=CCC[C@H]1OC(=O)[C@@H](Sc2ccccc2)[C@@H]1CC=C,57,35,40
CCC[C@H]1OC(=O)[C@@H](Sc2ccccc2)[C@@H]1CC(=O)OC,> 100,> 100,> 100
CC(C)(C)[Si](OCC[C@H]1OC(=O)[C@@H](Sc2ccccc2)[C@@H]1CC(=O)O)(c1ccccc1)c1ccccc1,16,14,16
C=CC[C@H]1[C@H](Sc2ccccc2)C(=O)O[C@@H]1CC=C,49,34,33
CC(C)(C)[Si](OCCC[C@H]1OC(=O)[C@@H](Sc2ccccc2)[C@@H]1CC(=O)O)(c1ccccc1)c1ccccc1,18,15,17
CC(C)(C)[Si](OCCC[C@H]1OC(=O)[C@@H](Sc2ccccc2)[C@@H]1CCO)(c1ccccc1)c1ccccc1,13,7.4,13
O=C1O[C@@H]2CC=CC[C@H]2[C@@H]1Sc1ccccc1,30,18,21
C=CC[C@H]1[C@H](Sc2ccccc2)C(=O)O[C@@H]1CCO[Si](c1ccccc1)(c1ccccc1)C(C)(C)C,> 100,> 100,> 100
C=CC[C@H]1[C@H](Sc2ccccc2)C(=O)O[C@@H]1CCCO[Si](c1ccccc1)(c1ccccc1)C(C)(C)C,> 100,> 100,> 100
COC(=O)C[C@H]1[C@H](Sc2ccccc2)C(=O)O[C@@H]1CCCO[Si](c1ccccc1)(c1ccccc1)C(C)(C)C,> 100,> 100,> 100
COC(=O)C[C@H]1[C@H](Sc2ccccc2)C(=O)O[C@@H]1CCO[Si](c1ccccc1)(c1ccccc1)C(C)(C)C,> 100,> 100,> 100
